Data: patent US5705499A, “8-arylalkyl- and 8-arylheteroalkyl-5,11-dihydro-6H-dipyrido[3,2-B:2',3'-e][1]diazepines and their use in the treatment of HIV-1 infection” (Boehringer Ingelheim Pharmaceuticals, Inc., priority 1996, dated 1998)
Each block holds one compound with its values, some of them ahead of it.

Legend:
[1] = target: T1, RT (Y181C) (Human immunodeficiency virus type 1 group M subtype B, UniProt P04585, Y768C); assay type: biochemical; conditions: Y181C mutant HIV-1 RT
T1 construct: Heterodimeric RT was eluted using a descending gradient; made in house; host or cells: E. coli
From the text: (§1) REVERSE TRANSCRIPT (RT) ASSAYS
(§2) Among the enzymes for which Human Immunodeficiency Virus (HIV-1) encodes is a reverse transcriptase (1), so-named because it transcribes a DNA copy from an RNA template. This activity can be quantitatively measured in a cell-free enzyme assay, which has been previously described (2), and is based upon the observation that reverse transcriptase is able to use a synthetic template [poly r(C) primed with oligo d(G)] to transcribe a radio-labelled, acid-precipitable DNA strand utilizing ^3 H-dGTP as a substrate. The assay described below utilizes the wild type (WT) enzyme, which is the predominant form of the enzyme observed in patients infected with HIV-1.
Purification of recombinant reverse transcriptase was performed using a combination of methods previously described (5). This procedure is summarized briefly as follows: Bacteria were pelleted E. Coli containing RT-1 wt or RT-1 (Y181 C) were suspended in 50 mM MES, pH 6.0 containing 10% glycerol, lysed in a french press, centrifuged, and the supernates discarded. […]
The 2.4× concentrated stock reaction mixture is aliquoted and stored at -20° C. […] The filters are then dried, placed into plastic bags with Betaplate scintillation cocktail (Pharmacia/LKB) and counted in the Betaplate counter (Pharmacia/LKB). […]

[2] = target: T2, RT (WT) (Human immunodeficiency virus type 1 group M subtype B, UniProt P04585); conditions: same in vitro tests used for the compounds of the invention; cited from earlier work
[3] = test system: AIDS; conditions: cited from earlier work
[4] = target: T2, RT (WT); assay: Reverse Transcriptase (RT) Assay, wild type; assay type: biochemical, HIV-1; set-up: Heterodimeric RT was eluted using a descending gradient; made in house; host or cells: E. coli (clone pKRT2, obtained from Yale University); conditions: read-out: RT (WT) Assay % inh. (1 μM)
From the text: as §1, §2
The HIV-1 RT expression clone, pKRT2, was obtained from Yale University (3). An overnight culture, grown in 2×YT medium (37° C., 225 rpm) (4), supplemented with 100 μg/mL ampicillin for positive selection was used to inoculate the 2×YT medium. The culture is incubated (37° C., 225 rpm) until it reaches an OD600 of 0.6-0.9. At that time the repressor inhibitor IPTG (isopropyl β-D-thiogalactopyranoside) is added to 0.5 mM, and the mixture is incubated for 2 additional hours.
Purification of recombinant reverse transcriptase was performed using a combination of methods previously described (5). This procedure is summarized briefly as follows: Bacteria were pelleted E. Coli containing RT-1 wt or RT-1 (Y181 C) were suspended in 50 mM MES, pH 6.0 containing 10% glycerol, lysed in a french press, centrifuged, and the supernates discarded. Lysate pellets were extracted with buffer A (50 mM MES, pH 6.0, 100 mM KCl, 50 mM KPi, 10% glycerol, 0.02% hexyl β-glucoside), and re-centrifuged; nucleic acid in supernates was precipitated with 0.1% polyethylenimine. […] Bound RT was eluted with a gradient of 0 to 1.0M (NH4)2 SO4 in buffer B. Heparin-Sepharose fractions containing RT were concentrated (Amicon YM-30 membrane), combined with equal volumes of 2.0M (NH4)2 SO4 in buffer B and injected onto a 21.5×150 mm TSK Phenyl-5PW HIC HPLC column (Phenomenex). Heterodimeric RT was eluted using a descending gradient of 1.0M to 0M (NH4)2 SO4 in buffer B, concentrated, and stored at 4° C.
The 2.4× concentrated stock reaction mixture is aliquoted and stored at -20° C. […] This enzyme assay has been adapted to a 96 well microtiter plate system, and has been previously described (6). Tris buffer (50 mM, pH 7.8), vehicle (solvent diluted to match the compound dilution), or compounds in vehicle are dispensed into 96-well microtiter plates (10 μL/well; 3 wells/compound). The HIV-1 RT enzyme is thawed, diluted in 50 mM Tris pH 7.8 containing 0.05% Chaps to give 1.5 nM enzyme and 25 μL are dispensed per well. Ten μL of 0.5M EDTA are added to the first three wells of the microtiter plate. EDTA chelates the Mg^++ present and prevents reverse transcription. This group serves as background polymerization which is subtracted from all other groups. Twenty-five μl of the 2.4× reaction mixture are added to all wells and the assay is allowed to incubate at room temperature for 30 minutes. The assay is terminated by precipitating the DNA in each well with 60μL of sodium pyrophosphate (2% w/v) in 10% trichloracetic acid (TCA) (10% w/v). The microtiter plate is incubated for 15 minutes at 4° C. and the precipitate is harvested onto #30 glass fiber paper (Schleicher & Schuell) using a Tomtech 96-well harvester. The filters are then dried, placed into plastic bags with Betaplate scintillation cocktail (Pharmacia/LKB) and counted in the Betaplate counter (Pharmacia/LKB).
The calculation for percent inhibition is as follows: [formula]

[5] = test system: C8166-45 cell line; assay: MTT Assay (cytotoxicity); assay type: cell-based, human; conditions: C8166-45 cells, five days
[6] = test system: HTLV-IIIB strain of HIV-1 (in C8166-45 cells); assay: Syncytia (human T-cell culture) Assay; assay type: cell-based; conditions: Human immunodeficiency virus 1, T-cell; C8166-45 cells, HTLV-IIIB strain, 72 hours; read-out: Syncytia Assay IC50
Protocol: Formation of syncytia is a feature of in vitro cultures of CD4+ T-cells infected with HIV-1. In this assay (1), T-cells are treated with a putative replication inhibiting compound and then infected with HIV-1. After incubation, the culture is checked for the formation of syncytia. The absence or reduction in the number of syncytia is used as a measure of the test compound's ability to inhibit HIV replication.
The target cells, designated C8166-45, are a fusion of umbilical blood lymphocytes and T-cells from leukemia-lymphoma patients and are established at an initial density of 5×10^4 per 90 μl in RPMI 1640 (+10% fetal bovine serum) culture medium in 96 well flat bottom plates. A selected amount of test compound, dissolved in DMSO, is included. 50 TCID50 's (the dose that results in induced effect in 50% of test cultures) of the HTLV-IIIB strain of HIV-1 (3) are inoculated into each culture. Control cultures receive compound or virus only.
The cultures are incubated for 72 hours (4), at 37° C. with 5% carbon dioxide, and then visually examined for the frequency and distribution of virus-induced giant cell syncytia. The percent inhibition by the test compound is determined by comparison with control values.

Compound: 2-Chloro-5,11-dihydro-11-ethyl-8-[2-(3-methylsulfonamidophenyl)ethyl]-6H-dipyrido[3,2-b:2',3'-e][1,4]diazepin-6-one [Example 25]
- RT (Y181C) Assay % inh. (1 μM) [1]: 70%

Compound: 5,11-Dihydro-11-ethyl-5-methyl-8-phenylethynyl-6H-dipyrido[3,2-b:2',3'-e][1,4]diazepin-6-one [Example 48]
- RT (Y181C) Assay % inh. (1 μM) [1]: 17%

Compound: Cc1ccnc2c1NC(=O)c1cccnc1N2C1CC1 [11-cyclopropyl-5,11-dihydro-4-methyl-6H-dipyrido[3,2-b;2',3', -e][1,4]diazepine-6-one]
- active in the same in vitro tests [2]: active in the same in vitro tests
- active in the treatment of AIDS in human tests [3]: active in the treatment of AIDS in human tests

Compound: CCN1c2ncc(/C=C/c3ccncc3)cc2C(=O)N(C)c2cccnc21 [Example 1, 5,11-Dihydro-11-ethyl-5-methyl-8-[trans-2-(pyrid-4-yl)ethen-1-yl]-6H H-dipyridol[3,2-b:2',3'-e][1,4]diazepin-6-one]
- inhibition at 1 µM [4]: 32%

Compound: CCN1c2ncc(CCc3ccncc3)cc2C(=O)N(C)c2cccnc21 [Example 2, 5,11-Dihydro-11-ethyl-5-methyl-8-[2-(pyrid-4-yl)ethyl]-6H-dipyrido[3,2-b:2',3'-e][1,4]diazepin-6-one]
- MTT Assay CC30 [5]: > 60 µM
- inhibition at 1 µM [4]: 95%
- IC50 [6]: 0.02 µM

Compound: CCN1c2ncc(CCc3ccncc3)cc2C(=O)N(C)c2ccc(Cl)nc21 [Example 3, 2-Chloro-5,11-dihydro-11ethyl-5methyl-8-[2-(pyrid-4-yl)ethyl]-6H-dipyrido-[3,2-b:2',3'-e][1,4]diazepin-6-one]
- MTT Assay CC30 [5]: 70 µM
- inhibition at 1 µM [4]: 95%
- IC50 [6]: 0.01 µM

Compound: CCN1c2ncc(CCc3ccncc3)cc2C(=O)N(C)c2ccc(C#N)nc21 [Example 4, 2-Cyano-5,11-dihydro-11-ethyl-8-[2-(4-pyridyl)ethyl]-5-methyl-6H-dipyrido-[3,2-b:2',3'-e][1,4]diazepin-6-one]
- inhibition at 1 µM [4]: 82%

Compound: CCN1c2ncc(CCc3ccncc3)cc2C(=O)N(C)c2ccc(N)nc21 [Example 5, 2-Amino-5,11-dihydro-11-ethyl-8-[2-(4-pyridil)ethyl]-5-methyl-6H -dipyrido[3,2-b:2',3'-e][1,4]diazepin-6-one]
- inhibition at 1 µM [4]: 68%

Compound: CCN1c2ncc(CCc3ccncc3)cc2C(=O)N(C)c2ccc(O)nc21 [Example 6, 5,11-Dihydro-11-ethyl-2-hydroxy-8-[2-(4-pyridil)ethyl]5-methyl-6H-dipyrido[3,2-b:2',3'-e][1,4]diazepin-6-one]
- MTT Assay CC30 [5]: > 256 µM
- inhibition at 1 µM [4]: 21%

- IC50 [6]: 0.003 µM
Compound: CCN1c2ncc(CCOc3ccncc3)cc2C(=O)N(C)c2ccc(Cl)nc21 [Example 127, 2-chloro-5,11-dihydro-11-ethyl-5-methyl-8-[2-(pyrid-4-yloxy)ethyl]-6H-dipyrido[3,2-b:2',3'-e][1,4]diazepin-6-one]
- MTT Assay CC30 [5]: 55 µM
